The source of these data is US8614170B2, “Method for treating fracturing water” (Schlumberger Technology Corporation, priority 2008, dated 2013).

In test [1] the test system is sessile sulfate reducing bacteria. The test is described as follows: Efficacy of metabolic inhibitor for sessile sulfate reducing bacteria (NACE standard TMO194-94 test method). In kind it is cell-based, sulfate reducing bacteria (SRB). The protocol: (§1) Efficacy of metabolic inhibitor for sulfate reducing bacteria was tested. NACE standard TMO194-94 test method was employed for testing the presence of general heterotrophic bacteria (GHB), acid producing bacteria (APB), and sulphate reducing bacteria (SRB) in field mix water samples at 85 deg F. (29.4 deg C.) containing different metabolic inhibitors and microbiocides: 100 ppm active or 200 ppm of calcium nitration solution and 125 ppm active glut or 500 ppm glut solution were used. In a first example, shown in FIG. 1, efficacy of metabolic inhibitor for planktonic sulfate reducing bacteria is tested. In a second example, shown in FIG. 2, efficacy of metabolic inhibitor for sessile sulfate reducing bacteria is tested.

For test [2], the system named is planktonic sulfate reducing bacteria. The test is described as follows: Efficacy of metabolic inhibitor for planktonic sulfate reducing bacteria (NACE standard TMO194-94 test method). The class given is cell-based. Conditions: planktonic SRB, field mix water samples at 85 deg F. (29.4 deg C.), FIG. 1. The protocol: as §1

For “calcium nitration solution [metabolic inhibitor]”, the “impact on sessile versus planktonic population” value in test [1] (maximum effect after 28 days) is recorded as “greater impact on the sessile bacteria population than the planktonic population”. Also, the “efficacy against sulfate reducing bacteria” value in test [1] (sessile SRB, field mix water samples at 85 deg F. (29.4 deg C.), FIG. 2) is given as “kill and/or inhibit the growth”; in test [2], “kill and/or inhibit the growth”.
